Key:
IKZF2 = molecular target: T1, IKZF2 (Homo sapiens, UniProt Q96SW2+Q9UKS7); test: Western blot degradation of IKZF2 in hPBMCs (24 h); type: cell-based; conditions: compounds at 50 nM and 500 nM
T1 construct: The supernatant was aspirated as the extracted total cell protein; endogenous in cells; host or cells: human peripheral blood mononuclear cells (hPBMCs)
How it was run: (§1)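 Degradation in primary human PBMCs after 24 h compound exposure at 50 and 500 nM. Western blot band intensities, normalised to an internal control protein, expressed as % protein remaining relative to DMSO.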

CK1α = molecular target: T2, CK1α (Homo sapiens, UniProt P48729+Q96SW2); test: Western blot degradation of CK1α in hPBMCs (24 h); type: cell-based; conditions: compounds at 50 nM and 500 nM
T2 construct: The supernatant was aspirated as the extracted total cell protein; endogenous in cells; host or cells: human peripheral blood mononuclear cells (hPBMCs)
T2 sequence (P48729 whole entry): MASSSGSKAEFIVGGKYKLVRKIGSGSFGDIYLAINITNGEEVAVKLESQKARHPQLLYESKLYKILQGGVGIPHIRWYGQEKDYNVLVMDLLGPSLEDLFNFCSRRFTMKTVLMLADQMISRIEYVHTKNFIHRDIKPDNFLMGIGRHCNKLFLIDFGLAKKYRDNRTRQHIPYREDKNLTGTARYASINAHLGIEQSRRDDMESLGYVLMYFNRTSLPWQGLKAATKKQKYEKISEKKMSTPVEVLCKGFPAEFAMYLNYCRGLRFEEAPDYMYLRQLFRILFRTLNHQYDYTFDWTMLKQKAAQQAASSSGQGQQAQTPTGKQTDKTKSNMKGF
T2 sequence (Q96SW2 whole entry): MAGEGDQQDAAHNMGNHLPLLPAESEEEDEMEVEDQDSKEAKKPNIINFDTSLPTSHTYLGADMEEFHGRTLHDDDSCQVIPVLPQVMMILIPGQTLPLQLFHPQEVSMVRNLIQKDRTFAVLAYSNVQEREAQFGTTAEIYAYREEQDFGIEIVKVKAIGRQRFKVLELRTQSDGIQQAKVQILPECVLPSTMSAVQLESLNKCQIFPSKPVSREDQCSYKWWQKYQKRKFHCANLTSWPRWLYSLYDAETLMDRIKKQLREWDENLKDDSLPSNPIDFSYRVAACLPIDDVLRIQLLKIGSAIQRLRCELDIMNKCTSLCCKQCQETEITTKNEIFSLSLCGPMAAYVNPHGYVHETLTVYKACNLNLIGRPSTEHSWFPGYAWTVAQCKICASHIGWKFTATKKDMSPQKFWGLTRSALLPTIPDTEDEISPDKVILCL
T2 sequence (Q16531 whole entry partner): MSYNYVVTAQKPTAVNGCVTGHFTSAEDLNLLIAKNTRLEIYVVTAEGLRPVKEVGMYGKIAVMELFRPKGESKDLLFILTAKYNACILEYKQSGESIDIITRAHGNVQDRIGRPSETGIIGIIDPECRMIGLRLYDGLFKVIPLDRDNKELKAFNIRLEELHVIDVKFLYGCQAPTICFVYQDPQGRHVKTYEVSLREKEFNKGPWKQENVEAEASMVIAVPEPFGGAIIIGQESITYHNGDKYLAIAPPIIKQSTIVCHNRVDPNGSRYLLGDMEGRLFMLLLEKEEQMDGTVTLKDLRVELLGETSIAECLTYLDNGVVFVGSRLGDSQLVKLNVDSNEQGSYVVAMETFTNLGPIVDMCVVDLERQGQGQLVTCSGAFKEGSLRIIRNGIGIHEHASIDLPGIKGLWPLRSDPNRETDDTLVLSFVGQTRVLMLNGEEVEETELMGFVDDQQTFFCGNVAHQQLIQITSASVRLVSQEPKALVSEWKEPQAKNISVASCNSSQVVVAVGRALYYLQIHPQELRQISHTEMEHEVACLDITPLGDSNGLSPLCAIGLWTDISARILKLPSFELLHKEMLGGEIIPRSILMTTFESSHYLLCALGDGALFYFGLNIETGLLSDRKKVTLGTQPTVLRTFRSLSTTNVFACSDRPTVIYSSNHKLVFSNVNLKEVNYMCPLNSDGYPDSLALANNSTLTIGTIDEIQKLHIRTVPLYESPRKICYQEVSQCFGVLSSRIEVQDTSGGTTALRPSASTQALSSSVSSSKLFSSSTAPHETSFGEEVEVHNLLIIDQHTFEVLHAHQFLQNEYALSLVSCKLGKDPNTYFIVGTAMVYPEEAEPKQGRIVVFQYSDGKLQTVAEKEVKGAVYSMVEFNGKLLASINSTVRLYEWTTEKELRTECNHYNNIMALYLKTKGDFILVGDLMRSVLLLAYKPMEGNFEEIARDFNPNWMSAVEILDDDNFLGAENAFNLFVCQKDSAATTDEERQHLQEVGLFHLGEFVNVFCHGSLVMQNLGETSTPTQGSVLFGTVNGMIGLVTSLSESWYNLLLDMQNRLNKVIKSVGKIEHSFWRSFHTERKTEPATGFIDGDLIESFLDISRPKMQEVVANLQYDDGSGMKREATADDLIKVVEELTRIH
How it was run: as §1

MGC803 cells = test: Inhibition of proliferation of gastric cancer cells MGC803 (cell viability assay, 96 h); type: cell-based, human; conditions: read-out: inhibitory activity (IC50) against tumor cells proliferation, MGC803
Procedure: (§2) The tumor cells used herein were cultured in a cell culture medium listed in table 2 at 37 °C in an incubator with 5% CO2. Prior to experimentation, all cell lines used were correctly identified by STR profiling, and tested negative for Mycoplasma contamination using a Mycoplasma detection kit through routine screenings.
(§3) The IC50 values of the compounds of the present disclosure (including the compounds in Table 1, and Examples 1-498) were determined using the CellTiter-Meiluncell Luminescent Cell Viability Assay Kit from Dalian Meilun Biotech Co., Ltd. The detailed procedure is as follows: Tumor cells were seeded in 96-well cell culture plates at the densities specified in Table 3. On the following day, the test compounds of the present disclosure were subjected to serial dilution. […] Subsequently, 0.5 μL of the test compound dilution was transferred into the 96-well plate containing the cells, with each well containing 100 μL of cell culture medium. […] Into the 96-well plate, the diluted test compounds and corresponding detection reagents were added, resulting in final test compound concentrations of 500 nM and 10 nM, respectively. The experimental procedure is described below using the diluted 2 μM test compound as an example.
(§4) 0.5 μL of the aforementioned diluted compound of the present disclosure (including the compounds in Table 1, and Examples 1-498) was added to the seeded cells in 100 μL of medium, yielding a final test compound concentration of 10 nM. After the cells were treated with the compounds of the present disclosure for a specified period, the cell viability assay reagent was added to the culture medium according to the kit's instructions to determine cell viability. […] All controls were treated using the same procedure as the compounds of the present disclosure. The growth inhibition curves for the compounds of the present disclosure were plotted using Prism GraphPad software, and the IC50 values were calculated therefrom.

IKZF1 = molecular target: T3, IKZF1 (Homo sapiens, UniProt Q13422+Q96SW2); test: Western blot degradation of IKZF1 in hPBMCs (24 h); type: cell-based; conditions: compounds at 50 nM and 500 nM
T3 construct: The supernatant was aspirated as the extracted total cell protein; endogenous in cells; host or cells: human peripheral blood mononuclear cells (hPBMCs)
T3 sequence (Q13422 whole entry): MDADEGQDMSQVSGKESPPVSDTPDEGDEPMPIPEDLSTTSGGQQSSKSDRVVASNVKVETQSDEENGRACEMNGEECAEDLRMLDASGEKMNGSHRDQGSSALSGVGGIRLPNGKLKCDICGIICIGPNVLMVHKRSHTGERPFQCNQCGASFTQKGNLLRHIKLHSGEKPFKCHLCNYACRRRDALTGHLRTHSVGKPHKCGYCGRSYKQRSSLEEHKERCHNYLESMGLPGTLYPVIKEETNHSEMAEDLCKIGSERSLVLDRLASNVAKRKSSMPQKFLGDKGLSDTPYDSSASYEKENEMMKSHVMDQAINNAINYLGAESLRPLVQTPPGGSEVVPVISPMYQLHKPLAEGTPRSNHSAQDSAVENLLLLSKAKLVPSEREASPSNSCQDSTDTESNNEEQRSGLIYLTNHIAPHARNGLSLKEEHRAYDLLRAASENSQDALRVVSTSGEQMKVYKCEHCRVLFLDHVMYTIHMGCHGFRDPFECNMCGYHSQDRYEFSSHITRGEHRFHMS
T3 sequence (Q96SW2 whole entry): as the sequence (Q96SW2 whole entry) above
T3 sequence (Q16531 whole entry partner): as the sequence (Q16531 whole entry partner) above
How it was run: as §1

WEE1 = molecular target: T4, WEE1 (Homo sapiens, UniProt P30291+Q96SW2); test: Western blot degradation of WEE1 in hPBMCs (24 h); type: cell-based; conditions: compounds at 50 nM and 500 nM
T4 construct: The supernatant was aspirated as the extracted total cell protein; endogenous in cells; host or cells: human peripheral blood mononuclear cells (hPBMCs)
T4 sequence (P30291 whole entry): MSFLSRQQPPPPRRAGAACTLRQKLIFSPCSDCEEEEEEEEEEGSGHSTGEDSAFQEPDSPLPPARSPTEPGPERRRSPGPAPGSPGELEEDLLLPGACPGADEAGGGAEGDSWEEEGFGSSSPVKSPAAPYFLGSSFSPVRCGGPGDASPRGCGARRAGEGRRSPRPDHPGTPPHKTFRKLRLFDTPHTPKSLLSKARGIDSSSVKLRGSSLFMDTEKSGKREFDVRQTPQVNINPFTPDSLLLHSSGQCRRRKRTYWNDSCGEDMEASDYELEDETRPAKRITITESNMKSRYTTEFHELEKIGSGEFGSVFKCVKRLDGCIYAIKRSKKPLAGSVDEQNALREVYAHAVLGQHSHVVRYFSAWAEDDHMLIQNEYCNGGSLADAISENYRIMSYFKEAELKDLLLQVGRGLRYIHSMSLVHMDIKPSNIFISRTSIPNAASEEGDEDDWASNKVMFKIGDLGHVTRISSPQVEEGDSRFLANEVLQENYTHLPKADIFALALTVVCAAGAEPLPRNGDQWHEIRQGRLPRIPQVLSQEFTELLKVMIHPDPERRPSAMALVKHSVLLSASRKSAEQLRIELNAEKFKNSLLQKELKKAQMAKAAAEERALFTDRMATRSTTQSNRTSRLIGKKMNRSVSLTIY
T4 sequence (Q96SW2 whole entry): as the sequence (Q96SW2 whole entry) above
T4 sequence (Q16531 whole entry partner): as the sequence (Q16531 whole entry partner) above
How it was run: as §1

GSPT1 = molecular target: T5, GSPT1 (Homo sapiens, UniProt P15170+Q96SW2); test: Western blot degradation of GSPT1 in hPBMCs (24 h); type: cell-based; conditions: compounds at 50 nM and 500 nM
T5 construct: The supernatant was aspirated as the extracted total cell protein; endogenous in cells; host or cells: human peripheral blood mononuclear cells (hPBMCs)
How it was run: as §1

MM.1S cells = test: Inhibition of proliferation of multiple myeloma cells MM.1S (cell viability assay, 96 h); type: cell-based, human; conditions: read-out: inhibitory activity (IC50) against tumor cells proliferation, MM.1S
IKZF3 = molecular target: T6, IKZF3 (Homo sapiens, UniProt Q96SW2+Q9UKT9); test: Western blot degradation of IKZF3 in hPBMCs (24 h); type: cell-based; conditions: compounds at 50 nM and 500 nM
T6 construct: The supernatant was aspirated as the extracted total cell protein; endogenous in cells; host or cells: human peripheral blood mononuclear cells (hPBMCs)
T6 sequence (Q9UKT9 whole entry): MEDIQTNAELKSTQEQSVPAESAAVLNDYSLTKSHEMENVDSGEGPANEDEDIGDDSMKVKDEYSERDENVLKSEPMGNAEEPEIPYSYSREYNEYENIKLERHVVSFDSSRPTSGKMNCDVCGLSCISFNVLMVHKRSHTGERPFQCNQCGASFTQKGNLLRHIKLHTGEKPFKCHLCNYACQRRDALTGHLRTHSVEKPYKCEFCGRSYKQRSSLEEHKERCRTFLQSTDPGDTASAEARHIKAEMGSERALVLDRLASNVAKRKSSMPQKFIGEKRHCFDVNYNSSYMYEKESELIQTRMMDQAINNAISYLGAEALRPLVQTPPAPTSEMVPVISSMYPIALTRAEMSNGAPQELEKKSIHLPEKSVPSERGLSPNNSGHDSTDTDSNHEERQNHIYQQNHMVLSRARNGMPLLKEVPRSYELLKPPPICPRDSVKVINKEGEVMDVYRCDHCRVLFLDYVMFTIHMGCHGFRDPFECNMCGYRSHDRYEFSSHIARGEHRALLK
T6 sequence (Q96SW2 whole entry): as the sequence (Q96SW2 whole entry) above
T6 sequence (Q16531 whole entry partner): as the sequence (Q16531 whole entry partner) above
How it was run: as §1

MV-4-11 cells = test: Inhibition of proliferation of myeloid monocytic leukemia cells MV-4-11 (cell viability assay, 96 h); type: cell-based, human; conditions: read-out: inhibitory activity (IC50) against tumor cells proliferation, MV-4-11
Procedure: as §2, §3, §4

Jurkat cells = test: Inhibition of proliferation of T lymphocytic leukemia cells Jurkat (cell viability assay, 96 h); type: cell-based, human; conditions: read-out: inhibitory activity (IC50) against tumor cells proliferation, Jurkat

T1 sequence (Q9UKS7 whole entry): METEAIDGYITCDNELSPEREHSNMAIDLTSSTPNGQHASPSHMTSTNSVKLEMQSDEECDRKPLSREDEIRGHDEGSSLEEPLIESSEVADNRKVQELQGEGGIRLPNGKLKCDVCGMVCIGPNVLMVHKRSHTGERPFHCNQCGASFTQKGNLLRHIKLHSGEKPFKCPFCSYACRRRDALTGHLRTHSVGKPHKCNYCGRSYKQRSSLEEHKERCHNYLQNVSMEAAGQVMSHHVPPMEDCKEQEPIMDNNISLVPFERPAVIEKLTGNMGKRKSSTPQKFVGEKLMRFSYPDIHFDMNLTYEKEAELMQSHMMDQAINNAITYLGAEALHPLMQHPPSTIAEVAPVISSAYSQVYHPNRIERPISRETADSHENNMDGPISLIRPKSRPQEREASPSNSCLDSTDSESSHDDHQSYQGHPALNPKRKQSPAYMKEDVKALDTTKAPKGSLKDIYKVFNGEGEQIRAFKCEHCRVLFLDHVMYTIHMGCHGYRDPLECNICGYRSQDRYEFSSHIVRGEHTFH
T1 sequence (Q96SW2 whole entry): as the sequence (Q96SW2 whole entry) above
T1 sequence (Q16531 whole entry partner): as the sequence (Q16531 whole entry partner) above

Row | Compound | IKZF2 substrate protein remaining % (IKZF2) | CK1α substrate protein remaining % (CK1α) | IC50 (MGC803 cells) [nM] | IKZF1 substrate protein remaining % (IKZF1) | WEE1 substrate protein remaining % (WEE1) | GSPT1 substrate protein remaining % (GSPT1) | IC50 (MM.1S cells) [nM] | IKZF3 substrate protein remaining % (IKZF3) | IC50 (MV-4-11 cells) [nM] | IC50 (Jurkat cells) [nM]
1 | O=C1CCN(N2Cc3cc(CN4CCN(c5cccc(Cl)c5Cl)CC4)ccc3C2=O)C(=O)N1 [GT-04853, 1-(5-((4-(2,3-dichlorophenyl)piperazin-1-yl)methyl)-1-oxoisoindolin-2-yl)dihydropyrimidine-2,4(1H,3H)-dione] | A (0% ≤ substrate protein remaining % ≤80%) | B (80%< substrate protein remaining % ≤100%) | 500 to 1000 | A (0% ≤ substrate protein remaining % ≤80%) | A (0% ≤ substrate protein remaining % ≤80%) | A (0% ≤ substrate protein remaining % ≤80%) | 100 to 300 | B (80%< substrate protein remaining % ≤100%) |  | 
2 | O=C1CCN(N2Cc3cc(CN4CCC(c5cccc(F)c5Cl)CC4)ccc3C2=O)C(=O)N1 [GT-06894, 1-(5-((4-(2-chloro-3-fluorophenyl)piperidin-1-yl)methyl)-1-oxoisoindolin-2-yl)dihydropyrimidine-2,4(1H,3H)-dione] | B (80%< substrate protein remaining % ≤100%) | B (80%< substrate protein remaining % ≤100%) |  | A (0% ≤ substrate protein remaining % ≤80%) | B (80%< substrate protein remaining % ≤100%) | A (0% ≤ substrate protein remaining % ≤80%) |  | B (80%< substrate protein remaining % ≤100%) | 300 to 500 | 500 to 1000
3 | Cc1cscc1C1=CCN(Cc2ccc3c(c2)CN(N2CCC(=O)NC2=O)C3=O)CC1 [GT-04872, 1-(5-((4-(4-methylthiophen-3-yl)-3,6-dihydropyridin-1(2H)-yl)methyl)-1-oxoisoindolin-2-yl)dihydropyrimidine-2,4(1H,3H)-dione] | B (80%< substrate protein remaining % ≤100%) | B (80%< substrate protein remaining % ≤100%) | 100 to 300 | A (0% ≤ substrate protein remaining % ≤80%) | A (0% ≤ substrate protein remaining % ≤80%) | A (0% ≤ substrate protein remaining % ≤80%) | 10 to 50 | B (80%< substrate protein remaining % ≤100%) |  | 100 to 300
4 | O=C1CCN(N2Cc3cc(CN4CCC(N(c5ccccc5)c5ccccc5)CC4)ccc3C2=O)C(=O)N1 [GT-04939, 1-(5-((4-(diphenylamino)piperidin-1-yl)methyl)-1-oxoisoindolin-2-yl)dihydropyrimidine-2,4(1H,3H)-dione] | A (0% ≤ substrate protein remaining % ≤80%) | A (0% ≤ substrate protein remaining % ≤80%) | 100 to 300 | A (0% ≤ substrate protein remaining % ≤80%) | A (0% ≤ substrate protein remaining % ≤80%) | A (0% ≤ substrate protein remaining % ≤80%) | 10 to 50 | A (0% ≤ substrate protein remaining % ≤80%) |  | 100 to 300
5 | O=C1CCN(N2Cc3cc(CN4CCC(N(c5ccccc5)c5ccccn5)CC4)ccc3C2=O)C(=O)N1 [GT-04940, 1-(1-oxo-5-((4-(phenyl(pyridin-2-yl)amino)piperidin-1-yl)methyl)isoindolin-2-yl)dihydropyrimidine-2,4(1H,3H)-dione] | A (0% ≤ substrate protein remaining % ≤80%) | A (0% ≤ substrate protein remaining % ≤80%) | 100 to 300 | A (0% ≤ substrate protein remaining % ≤80%) | A (0% ≤ substrate protein remaining % ≤80%) | A (0% ≤ substrate protein remaining % ≤80%) | 50 to 100 | A (0% ≤ substrate protein remaining % ≤80%) |  | 100 to 300
6 | O=C1CCN(N2Cc3cc(CN4CCN(c5cc(Cl)cc(Cl)c5)CC4)ccc3C2=O)C(=O)N1 [GT-06776, 1-(5-((4-(3,5-dichlorophenyl)piperazin-1-yl)methyl)-1-oxoisoindolin-2-yl)dihydropyrimidine-2,4(1H,3H)-dione] | A (0% ≤ substrate protein remaining % ≤80%) | A (0% ≤ substrate protein remaining % ≤80%) |  | B (80%< substrate protein remaining % ≤100%) | A (0% ≤ substrate protein remaining % ≤80%) | A (0% ≤ substrate protein remaining % ≤80%) |  | B (80%< substrate protein remaining % ≤100%) | 100 to 300 | 500 to 1000
7 | O=C1CCN(N2Cc3cc(CN4CCN(C(c5ccccc5)c5ccccn5)CC4)ccc3C2=O)C(=O)N1 (stereo not shown) [GT-04890, 1-(1-oxo-5-((4-(phenyl(pyridin-2-yl)methyl)piperazin-1-yl)methyl)isoindolin-2-yl)dihydropyrimidine-2,4(1H,3H)-dione] | A (0% ≤ substrate protein remaining % ≤80%) | B (80%< substrate protein remaining % ≤100%) | 500 to 1000 | A (0% ≤ substrate protein remaining % ≤80%) | B (80%< substrate protein remaining % ≤100%) | A (0% ≤ substrate protein remaining % ≤80%) | 100 to 300 | B (80%< substrate protein remaining % ≤100%) |  | 
8 | O=C1CCN(N2Cc3cc(CN4CCC(c5cccc(Cl)c5Cl)CC4)ccc3C2=O)C(=O)N1 [GT-06893, 1-(5-((4-(2,3-dichlorophenyl)piperidin-1-yl)methyl)-1-oxoisoindolin-2-yl)dihydropyrimidine-2,4(1H,3H)-dione] | A (0% ≤ substrate protein remaining % ≤80%) | B (80%< substrate protein remaining % ≤100%) |  | A (0% ≤ substrate protein remaining % ≤80%) | B (80%< substrate protein remaining % ≤100%) | A (0% ≤ substrate protein remaining % ≤80%) |  | B (80%< substrate protein remaining % ≤100%) | 100 to 300 | 500 to 1000
